Literature values as cited in patent US6515019B2, “Methods of providing symptomatic and prophylactic treatment for medical and neurological conditions” (priority 1996, dated 2003).

How the values were obtained:
neuronal cell death = conditions: administered post-hoc; animal models of ischemia (Wasterlain 1993; Shuaib 1996; Wasterlain 1996)
[1] = add-on therapy in partial epilepsy in children (Carmant J., Pediatr 125:481-486, 1994)
[2] = patients on felbamate monotherapy (Faught E., Neurology 43:688-692, 1993)

Weight loss [2]: 4-5%
SMILES: NC(=O)OCC(COC(N)=O)c1ccccc1 [Felbamate, 2-phenyl-1,3-propanediol dicarbamate]
prevention of neuronal cell death (neuronal cell death): effective in preventing neuronal cell death
weight loss course [1]: transient and returned to normal after twenty weeks
